In doi:10.1101/2024.08.19.608619, “Discovery of potent SARS-CoV-2 nsp3 macrodomain inhibitors uncovers lack of translation to cellular antiviral response” (bioRxiv, 2024):
Read-outs that look alike come from different tables or passages of the source.

Legend:
SARS-CoV-2 nsp3-mac1 [1] = target: T1, SARS-CoV-2 nsp3-mac1 (Severe acute respiratory syndrome coronavirus 2, UniProt P0DTD1); experiment: biochemical; set-up: SARS-CoV-2 nsp3 macrodomain TR-FRET single point, per cent inhibition, n=2
SARS-CoV-2 nsp3-mac1 [2] = target: T1, SARS-CoV-2 nsp3-mac1; experiment: biochemical; assay type: biochemical; settings: SARS-CoV-2 nsp3 macrodomain TR-FRET single point, concentration 50.0 uM

Row | SMILES | perc_inhibition_mean (SARS-CoV-2 nsp3-mac1 [2]) | further results
1 | CC(C)(C[C@@H]1CCCN(c2ncnc3[nH]ccc23)C1)C(N)=O [ASAP-0000077] | -1.586% | inhibition at 50 µM (SARS-CoV-2 nsp3-mac1 [1]; read-out: perc_inhibition_mean, batch_name=ASAP-0000077-001): -1.59%
2 | Cc1nc(NC(=O)[C@@H]2CCCOC2)c2ccnc-2[nH]1 [ASAP-0000078] | -3.202% | inhibition at 50 µM (SARS-CoV-2 nsp3-mac1 [1]; read-out: perc_inhibition_mean, batch_name=ASAP-0000078-001): -3.2%
3 | O=C(Nc1cnc2[nH]ncc2c1)c1cc(C2CC2)[nH]c1C1CC1 [ASAP-0000079] | -23.613% | inhibition at 50 µM (SARS-CoV-2 nsp3-mac1 [1]; read-out: perc_inhibition_mean, batch_name=ASAP-0000079-001): -23.6%
4 | O[C@H]1C[C@](CNc2ncnc3[nH]ccc23)(c2ccccc2)C1 [ASAP-0000080] | 11.369% | inhibition at 50 µM (SARS-CoV-2 nsp3-mac1 [1]; read-out: perc_inhibition_mean, batch_name=ASAP-0000080-001): 11.4%
5 | Cc1[nH]c2ncnc(NC(=O)CCc3ccccc3)c2c1C [ASAP-0000081] | 5.021% | inhibition at 50 µM (SARS-CoV-2 nsp3-mac1 [1]; read-out: perc_inhibition_mean, batch_name=ASAP-0000081-001): 5.02%
6 | CCC[C@@](C)(NC(=O)c1ncnc2[nH]ccc12)C(=O)OC [ASAP-0000082] | -6.621% | inhibition at 50 µM (SARS-CoV-2 nsp3-mac1 [1]; read-out: perc_inhibition_mean, batch_name=ASAP-0000082-001): -6.62%
7 | Oc1ccccc1CNc1ncnc2[nH]cnc12 [ASAP-0000083] | 1.904% | inhibition at 50 µM (SARS-CoV-2 nsp3-mac1 [1]; read-out: perc_inhibition_mean, batch_name=ASAP-0000083-001): 1.9%
8 | Cc1nn(Cc2ccccc2)c(C)c1CNc1ncnc2[nH]ncc12 [ASAP-0000084] | -1.755% | inhibition at 50 µM (SARS-CoV-2 nsp3-mac1 [1]; read-out: perc_inhibition_mean, batch_name=ASAP-0000084-001): -1.75%
9 | c1ccc2sc([C@@H]3CCCN(c4ncnc5[nH]ccc45)C3)nc2c1 [ASAP-0000085] | -0.779% | inhibition at 50 µM (SARS-CoV-2 nsp3-mac1 [1]; read-out: perc_inhibition_mean, batch_name=ASAP-0000085-001): -0.779%
10 | COc1ccc(Nc2ncnc3[nH]ncc23)c(OC)c1 [ASAP-0000086] | 2.597% | inhibition at 50 µM (SARS-CoV-2 nsp3-mac1 [1]; read-out: perc_inhibition_mean, batch_name=ASAP-0000086-001): 2.6%
11 | CCc1nc(CN(C)c2nc(C)nc3[nH]ccc23)cs1 [ASAP-0000087] | -6.131% | inhibition at 50 µM (SARS-CoV-2 nsp3-mac1 [1]; read-out: perc_inhibition_mean, batch_name=ASAP-0000087-001): -6.13%
12 | FC(F)(F)c1nc(NC[C@H]2CCCO2)c2nc[nH]c2n1 [ASAP-0000088] | 2.501% | inhibition at 50 µM (SARS-CoV-2 nsp3-mac1 [1]; read-out: perc_inhibition_mean, batch_name=ASAP-0000088-001): 2.5%
13 | COCc1nc(CNc2c(C#N)c(C)nn2C)cs1 [ASAP-0000089] | 0.8% | inhibition at 50 µM (SARS-CoV-2 nsp3-mac1 [1]; read-out: perc_inhibition_mean, batch_name=ASAP-0000089-001): 0.8%
14 | Cc1[nH]c2ncnc(NC(=O)[C@@H]3CCO[C@@H]3C)c2c1C [ASAP-0000090] | 35.092% | inhibition at 50 µM (SARS-CoV-2 nsp3-mac1 [1]; read-out: perc_inhibition_mean, batch_name=ASAP-0000090-001): 35.1%
15 | O=C1CC[C@H](COC(=O)c2ncnc3[nH]ccc23)CCN1 [ASAP-0000091] | -7.865% | inhibition at 50 µM (SARS-CoV-2 nsp3-mac1 [1]; read-out: perc_inhibition_mean, batch_name=ASAP-0000091-001): -7.87%
16 | c1ccc2c(-c3c[nH]c4ncccc34)n[nH]c2c1 [ASAP-0000092] | -7.254% | inhibition at 50 µM (SARS-CoV-2 nsp3-mac1 [1]; read-out: perc_inhibition_mean, batch_name=ASAP-0000092-001): -7.25%
17 | CCO[C@@H]1C[C@@H](Nc2ncnc3[nH]ccc23)C12CCOCC2 [ASAP-0000093] | 2.316% | inhibition at 50 µM (SARS-CoV-2 nsp3-mac1 [1]; read-out: perc_inhibition_mean, batch_name=ASAP-0000093-001): 2.32%
18 | O=C1C[C@@]2(CCCN(c3ncnc4[nH]ccc34)C2)CN1 [ASAP-0000094] | -2.451% | inhibition at 50 µM (SARS-CoV-2 nsp3-mac1 [1]; read-out: perc_inhibition_mean, batch_name=ASAP-0000094-001): -2.45%
19 | Cn1nc(NCc2cc3c(=O)[nH]ccc3o2)c2nccnc21 [ASAP-0000095] | -1.007% | inhibition at 50 µM (SARS-CoV-2 nsp3-mac1 [1]; read-out: perc_inhibition_mean, batch_name=ASAP-0000095-001): -1.01%
20 | Cn1ncc2c(NCc3ncccc3O)ncnc21 [ASAP-0000096] | 3.893% | inhibition at 50 µM (SARS-CoV-2 nsp3-mac1 [1]; read-out: perc_inhibition_mean, batch_name=ASAP-0000096-001): 3.89%
21 | O=S(=O)(Nc1ncccn1)c1ccc2oc3ccccc3c2c1 [ASAP-0000097] | -3.004% | inhibition at 50 µM (SARS-CoV-2 nsp3-mac1 [1]; read-out: perc_inhibition_mean, batch_name=ASAP-0000097-001): -3%
22 | COCc1nc(CNc2ncc3c(n2)COC3)cs1 [ASAP-0000098] | -7.137% | inhibition at 50 µM (SARS-CoV-2 nsp3-mac1 [1]; read-out: perc_inhibition_mean, batch_name=ASAP-0000098-001): -7.14%
23 | Cn1nc(NC(=O)c2cc(-c3ccco3)[nH]n2)c2nccnc21 [ASAP-0000099] | -5.398% | inhibition at 50 µM (SARS-CoV-2 nsp3-mac1 [1]; read-out: perc_inhibition_mean, batch_name=ASAP-0000099-001): -5.4%
24 | O=S(=O)(NC[C@H]1CCOC1)c1cn2c(n1)CCCC2 [ASAP-0000100] | -3.203% | inhibition at 50 µM (SARS-CoV-2 nsp3-mac1 [1]; read-out: perc_inhibition_mean, batch_name=ASAP-0000100-001): -3.2%
